The results in this text go back to patent US20110217309A1, “BIOLOGICAL MARKERS PREDICTIVE OF ANTI-CANCER RESPONSE TO INSULIN-LIKE GROWTH FACTOR-1 RECEPTOR KINASE INHIBITORS” (priority 2010, published 2011).

For orientation: EC50 means the concentration that produces a half-maximal response.

Assay [1] concerns Colo205 tumors. As to the kind of experiment: Tumor xenograft study. The settings on record: treatment in vivo for 10-14 days.
The test system of assay [2] is BxPC3. As to the kind of experiment: Cell Titer Glo proliferation assay. To be noted: Homo sapiens, BXPC-3, read-out: EC50 in culture in vitro. Type of assay: cell-based. The text has this:
(§1) Cell Lines and Culture. Human cancer cell lines, were obtained from American Type Culture Collection (ATCC, Manassas, Va.), or the following additional indicated sources, and cultured in media as described. Tumor types are also indicated: H295R (adrenocortical carcinoma; ATCC), NCI-[…], NCI-[…], SW1573 (NSCLC; ATCC), […], BxPC3 (pancreatic; ATCC), OVCAR5 (ovarian; NCI), MDAH-2774 (ovarian; ATCC), Igrov1 (ovarian; NCI), GEO (colon; Roswell Park Cancer Institute (RPCC)), HT-29 (colon; ATCC), RKO (colon; ATCC), […], 8226 (myeloma; ATCC), H929 (myeloma; ATCC), U266 (myeloma; ATCC), SKES1 (Ewings sarcoma; ATCC), RDES (Ewings sarcoma; ATCC), RD (rhabdomyosarcoma; ATCC), DU4475 (breast; ATCC), SKNAS (neuroblastoma; ATCC), 2650 (nasal SCC; ATCC), OVCAR4 (ovarian; NCI), A673 (Ewings sarcoma; ATCC), BT474 (breast; ATCC), 1386 (oral SCC; MSKCC, NY), 1186 (SCCHN; MSKCC, NY), Colo205 (colon; ATCC), HCT-15 (colon; ATCC), Fadu (oral SCC; ATCC), SKBR3 (breast; ATCC), 1483 (HNSCC; MSKCC, NY), HSC-2 (HNSCC; RIKEN BioResource Center, Tsukuba, Ibaraki, 305-0074, Japan), SKOV-3 (ovarian; ATCC), OVCAR-3 (ovarian; NCI), OVCAR-8 (ovarian; NCI), CaOV3 (ovarian; ATCC). […] The cells were routinely screened for the presence of mycoplasma (MycoAlert, Cambrex Bio Science, Baltimore, Md.). For growth inhibition assays, cells were plated and allowed to proliferate for 24 hours. […] Cell viability was assayed using the Cell Titer-Glo reagent (Promega Corp., Madison, Wis.). Proliferation Assay. […] The basis of the assay is a luminescent quantitation of ATP present in a cell culture plate well. In essence, the greater the number of viable cells in the well, the greater the level of ATP present. The assay utilizes a substrate that binds ATP to produce a luminescent signal, which can be read on a luminometer. Unless otherwise noted, the manufacturer's instructions were followed exactly. Briefly, on Day 1, cells were plated in 120 μl of 10% serum-containing growth media at a density of 4000 cells/well in a white polystyrene 96 well assay plate. […] After 72 h incubation with the inhibitor, the cells were assayed. Results were calculated as a fraction of the DMSO controlled cells.
On the technique in general: In ATP-based viability assays light output follows the ATP content of the culture.

Assay [3] has as its system H460. As to the kind of experiment: Cell Titer Glo proliferation assay. The settings on record: Homo sapiens, NCI-H460; read-out: EC50 in culture in vitro. It is filed as cell-based.
Text: as §1

Assay [4] concerns H295R. The assay can be described thus: Cell Titer Glo proliferation assay. Type of assay: cell-based. The settings on record: Homo sapiens, NCI-H295R; read-out: EC50 in culture in vitro.
Text: as §1

The test system of assay [5] is Colo205. As to the kind of experiment: Cell Titer Glo proliferation assay. Type of assay: cell-based. To be noted: Homo sapiens, COLO 205, read-out: EC50 in culture in vitro.
Text: as §1

The subject of assay [6] is FaDu. The assay can be described thus: Cell Titer Glo proliferation assay. Type of assay: cell-based. The settings on record: Homo sapiens, read-out: EC50 in culture in vitro.
Text: as §1

For assay [7], the system named is SKNAS. The assay can be described thus: Cell Titer Glo proliferation assay. It is filed as cell-based. The settings on record: Homo sapiens, SK-N-AS, read-out: EC50 in culture in vitro.
Text: as §1

Assay [8] relates to H295R tumors. The assay can be described thus: Tumor xenograft study. The settings on record: treatment in vivo for 10-14 days.

SMILES strings stand for the structures. Bounds are passed on as bounds.

Take `C[C@]1(O)C[C@@H](c2nc(-c3ccc4ccc(-c5ccccc5)nc4c3)c3c(N)nccn32)C1` [OSI-906, cis-3-[8-amino-1-(2-phenyl-quinolin-7-yl)-imidazo[1,5-a]pyrazin-3-yl]-1-methyl-cyclobutanol]: the “% TGI (tumor growth inhibition)” value was 90% in assay [1] and 85% in assay [8]. Also, the EC50 in assay [2] is less than 1000 nM; in assay [3], greater than 10000 nM; in assay [4] it was less than 1000 nM; in assay [5], less than 1000 nM; in assay [6] it was greater than 10000 nM; in assay [7], less than 1000 nM.
